How the values were obtained:
Assay in all cases: Test E pre-/postemergence plant response
Type in all cases: in vivo
[1] = test system: barnyardgrass (Echinochloa crus-galli); conditions: scale 0 to 100
Summary of the method: (§1)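 Seeds were planted and treated preemergence with compound formulated in a non-phytotoxic solvent mixture containing surfactant; postemergence sprays in the same formulation went onto plants 2 to 18 cm tall (1- to 4-leaf stage). After 14 to 21 days in a greenhouse, injury versus untreated controls was rated visually, 0 (no effect) to 100 (complete control).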

[2] = test system: bermudagrass (Cynodon dactylon); conditions: scale 0 to 100
Summary of the method: as §1

[3] = test system: black mustard (Brassica nigra); conditions: scale 0 to 100
Summary of the method: as §1

[4] = test system: common chickweed (Stellaria media); conditions: 16 g ai/ha, Preemergence, scale 0 to 100
Summary of the method: as §1

[5] = test system: common groundsel (Senecio vulgaris); conditions: scale 0 to 100
Summary of the method: as §1

[6] = test system: common purslane (Portulaca oleracea); conditions: scale 0 to 100
Summary of the method: as §1

[7] = test system: dallisgrass (Paspalum dilatatum); conditions: scale 0 to 100
Summary of the method: as §1

[8] = test system: goosegrass (Eleusine indica); conditions: scale 0 to 100
Summary of the method: as §1

[9] = test system: green foxtail (Setaria viridis); conditions: scale 0 to 100
Summary of the method: as §1

[10] = test system: johnsongrass (Sorghum halepense); conditions: scale 0 to 100
Summary of the method: as §1

[11] = test system: large crabgrass (Digitaria sanguinalis); conditions: scale 0 to 100
Summary of the method: as §1

[12] = test system: quackgrass (Elytrigia repens); conditions: scale 0 to 100
Summary of the method: as §1

[13] = test system: southern (S.) sandbur (Cenchrus echinatus); conditions: scale 0 to 100
Summary of the method: as §1

[14] = test system: surinam grass (Brachiaria decumbens); conditions: scale 0 to 100
Summary of the method: as §1

Cc1cc(-c2ccc(Cl)cc2)nn1-c1c(OC(=O)C(C)C)cnn(C)c1=O [Compound 34]
Plant response rating, Barnyardgrass ([1]; 16 g ai/ha, Preemergence): 80
Plant response rating, Barnyardgrass ([1]; 31 g ai/ha, Preemergence): 100
Plant response rating, Barnyardgrass ([1]; 62 g ai/ha, Preemergence): 100
Plant response rating, Barnyardgrass ([1]; Postemergence, 8 g ai/ha): 95
Plant response rating, Barnyardgrass ([1]; Postemergence, 16 g ai/ha): 100
Plant response rating, Barnyardgrass ([1]; Postemergence, 31 g ai/ha): 100
Plant response rating, Barnyardgrass ([1]; Postemergence, 62 g ai/ha): 100
Plant response rating, Bermudagrass ([2]; 16 g ai/ha, Preemergence): 40
Plant response rating, Bermudagrass ([2]; 31 g ai/ha, Preemergence): 90
Plant response rating, Bermudagrass ([2]; 62 g ai/ha, Preemergence): 100
Plant response rating, Bermudagrass ([2]; Postemergence, 8 g ai/ha): 20
Plant response rating, Bermudagrass ([2]; Postemergence, 16 g ai/ha): 50
Plant response rating, Bermudagrass ([2]; Postemergence, 31 g ai/ha): 80
Plant response rating, Bermudagrass ([2]; Postemergence, 62 g ai/ha): 95
Plant response rating, Mustard, Black ([3]; 16 g ai/ha, Preemergence): 0
Plant response rating, Mustard, Black ([3]; 31 g ai/ha, Preemergence): 0
Plant response rating, Mustard, Black ([3]; 62 g ai/ha, Preemergence): 0
Plant response rating, Mustard, Black ([3]; Postemergence, 8 g ai/ha): 0
Plant response rating, Mustard, Black ([3]; Postemergence, 16 g ai/ha): 0
Plant response rating, Mustard, Black ([3]; Postemergence, 31 g ai/ha): 0
Plant response rating, Mustard, Black ([3]; Postemergence, 62 g ai/ha): 0
Plant response rating, Chickweed [4]: 0
Plant response rating, Groundsel ([5]; 16 g ai/ha, Preemergence): 0
Plant response rating, Groundsel ([5]; 31 g ai/ha, Preemergence): 0
Plant response rating, Groundsel ([5]; 62 g ai/ha, Preemergence): 0
Plant response rating, Groundsel ([5]; Postemergence, 8 g ai/ha): 0
Plant response rating, Groundsel ([5]; Postemergence, 16 g ai/ha): 0
Plant response rating, Groundsel ([5]; Postemergence, 31 g ai/ha): 0
Plant response rating, Groundsel ([5]; Postemergence, 62 g ai/ha): 0
Plant response rating, Purslane ([6]; 16 g ai/ha, Preemergence): 0
Plant response rating, Purslane ([6]; 31 g ai/ha, Preemergence): 0
Plant response rating, Purslane ([6]; Postemergence, 8 g ai/ha): 0
Plant response rating, Purslane ([6]; Postemergence, 16 g ai/ha): 0
Plant response rating, Purslane ([6]; Postemergence, 31 g ai/ha): 0
Plant response rating, Purslane ([6]; Postemergence, 62 g ai/ha): 0
Plant response rating, Dallisgrass ([7]; 16 g ai/ha, Preemergence): 50
Plant response rating, Dallisgrass ([7]; 31 g ai/ha, Preemergence): 85
Plant response rating, Dallisgrass ([7]; 62 g ai/ha, Preemergence): 85
Plant response rating, Dallisgrass ([7]; Postemergence, 8 g ai/ha): 10
Plant response rating, Dallisgrass ([7]; Postemergence, 16 g ai/ha): 20
Plant response rating, Dallisgrass ([7]; Postemergence, 31 g ai/ha): 20
Plant response rating, Dallisgrass ([7]; Postemergence, 62 g ai/ha): 70
Plant response rating, Goosegrass ([8]; 16 g ai/ha, Preemergence): 65
Plant response rating, Goosegrass ([8]; 31 g ai/ha, Preemergence): 95
Plant response rating, Goosegrass ([8]; 62 g ai/ha, Preemergence): 100
Plant response rating, Goosegrass ([8]; Postemergence, 8 g ai/ha): 0
Plant response rating, Goosegrass ([8]; Postemergence, 16 g ai/ha): 20
Plant response rating, Goosegrass ([8]; Postemergence, 31 g ai/ha): 80
Plant response rating, Goosegrass ([8]; Postemergence, 62 g ai/ha): 80
Plant response rating, Foxtail, Green ([9]; 16 g ai/ha, Preemergence): 65
Plant response rating, Foxtail, Green ([9]; 31 g ai/ha, Preemergence): 75
Plant response rating, Foxtail, Green ([9]; 62 g ai/ha, Preemergence): 100
Plant response rating, Foxtail, Green ([9]; Postemergence, 8 g ai/ha): 50
Plant response rating, Foxtail, Green ([9]; Postemergence, 16 g ai/ha): 75
Plant response rating, Foxtail, Green ([9]; Postemergence, 31 g ai/ha): 95
Plant response rating, Foxtail, Green ([9]; Postemergence, 62 g ai/ha): 98
Plant response rating, Johnsongrass ([10]; 16 g ai/ha, Preemergence): 50
Plant response rating, Johnsongrass ([10]; 31 g ai/ha, Preemergence): 90
Plant response rating, Johnsongrass ([10]; 62 g ai/ha, Preemergence): 90
Plant response rating, Johnsongrass ([10]; Postemergence, 8 g ai/ha): 10
Plant response rating, Johnsongrass ([10]; Postemergence, 16 g ai/ha): 80
Plant response rating, Johnsongrass ([10]; Postemergence, 31 g ai/ha): 98
Plant response rating, Johnsongrass ([10]; Postemergence, 62 g ai/ha): 100
Plant response rating, Crabgrass, Large ([11]; 31 g ai/ha, Preemergence): 50
Plant response rating, Crabgrass, Large ([11]; 62 g ai/ha, Preemergence): 100
Plant response rating, Crabgrass, Large ([11]; Postemergence, 8 g ai/ha): 60
Plant response rating, Crabgrass, Large ([11]; Postemergence, 16 g ai/ha): 75
Plant response rating, Crabgrass, Large ([11]; Postemergence, 31 g ai/ha): 100
Plant response rating, Crabgrass, Large ([11]; Postemergence, 62 g ai/ha): 100
Plant response rating, Quackgrass ([12]; 16 g ai/ha, Preemergence): 20
Plant response rating, Quackgrass ([12]; 31 g ai/ha, Preemergence): 50
Plant response rating, Quackgrass ([12]; 62 g ai/ha, Preemergence): 70
Plant response rating, Quackgrass ([12]; Postemergence, 8 g ai/ha): 0
Plant response rating, Quackgrass ([12]; Postemergence, 16 g ai/ha): 0
Plant response rating, Quackgrass ([12]; Postemergence, 31 g ai/ha): 30
Plant response rating, Quackgrass ([12]; Postemergence, 62 g ai/ha): 40
Plant response rating, Sandbur, S. ([13]; 16 g ai/ha, Preemergence): 75
Plant response rating, Sandbur, S. ([13]; 31 g ai/ha, Preemergence): 90
Plant response rating, Sandbur, S. ([13]; 62 g ai/ha, Preemergence): 100
Plant response rating, Sandbur, S. ([13]; Postemergence, 8 g ai/ha): 75
Plant response rating, Sandbur, S. ([13]; Postemergence, 16 g ai/ha): 75
Plant response rating, Sandbur, S. ([13]; Postemergence, 31 g ai/ha): 90
Plant response rating, Sandbur, S. ([13]; Postemergence, 62 g ai/ha): 100
Plant response rating, Surinam Grass ([14]; 16 g ai/ha, Preemergence): 98
Plant response rating, Surinam Grass ([14]; 31 g ai/ha, Preemergence): 100
Plant response rating, Surinam Grass ([14]; 62 g ai/ha, Preemergence): 100
Plant response rating, Surinam Grass ([14]; Postemergence, 8 g ai/ha): 90
Plant response rating, Surinam Grass ([14]; Postemergence, 16 g ai/ha): 98
Plant response rating, Surinam Grass ([14]; Postemergence, 31 g ai/ha): 100
Plant response rating, Surinam Grass ([14]; Postemergence, 62 g ai/ha): 100
